Measured values taken from patent US8404643B2, “Metastin derivatives and use thereof” (priority 2005, dated 2013).
Square brackets hold non-standard residues; d marks the D form. Peptide text beside a SMILES is read from it. Arg(Me) = CNC(=N)NCCC[C@H](N)C(=O)O; Ala(cPr) = N[C@@H](CC1CC1)C(=O)O; Hyp = O=C(O)[C@@H]1C[C@@H](O)CN1; Cit = NC(=O)NCCC[C@H](N)C(=O)O; NMeS = CN[C@@H](CO)C(=O)O; azaGly = NNC(=O)O

biological target: T1, hOT7T175 (Homo sapiens, UniProt Q969F8); assay: Assay for intracellular Ca ion level-increasing activity using FLIPR; format: cell-based; conditions: hOT7T175/CHO cells, relative to Metastin (1-54)
T1 construct: expressed in transfected cells
Method in brief: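 CHO/dhfr− cells stably transfected with hOT7T175, selected for high metastin response, loaded with Fluo3-AM for 1 h at 37 °C in HANKS/HBSS (pH 7.4) with probenecid. Peptides were diluted from 1×10^−3 M DMSO stock into HANKS/HBSS with 2.5 mM probenecid, 0.2% BSA, 0.1% CHAPS; intracellular Ca rise read by FLIPR.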

T1 sequence (Q969F8 whole entry L364H): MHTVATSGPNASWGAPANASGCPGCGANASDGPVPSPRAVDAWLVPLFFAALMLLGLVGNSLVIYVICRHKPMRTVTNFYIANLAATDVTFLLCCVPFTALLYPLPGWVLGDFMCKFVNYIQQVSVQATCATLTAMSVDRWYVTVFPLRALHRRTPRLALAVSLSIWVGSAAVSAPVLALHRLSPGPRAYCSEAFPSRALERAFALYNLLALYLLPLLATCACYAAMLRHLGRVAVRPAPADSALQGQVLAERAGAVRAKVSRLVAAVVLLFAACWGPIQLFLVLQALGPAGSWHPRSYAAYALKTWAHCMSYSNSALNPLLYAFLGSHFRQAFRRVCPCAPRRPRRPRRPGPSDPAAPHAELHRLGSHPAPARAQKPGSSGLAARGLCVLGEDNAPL

Point of comparison: `CNC(=N)NCCC[C@H](NC(=O)[C@H](CC(C)C)NC(=O)NNC(=O)[C@H](Cc1ccccc1)NC(=O)[C@H](C)NC(=O)[C@H](CC(N)=O)NC(=O)[C@@H]1C[C@@H](O)CN1C(=O)[C@@H](Cc1ccc(O)cc1)NC(C)=O)C(=O)N[C@@H](Cc1c[nH]c2ccccc12)C(N)=O` [Compound No. 814, Ac-D-Tyr-Hyp-Asn-Ala-Phe-AzaGly-Leu-Arg(Me)-Trp-NH2] (Ac-[dY][Hyp]NAF[azaGly]L[Arg(Me)]W-NH2), “Specific Activity: intracellular Ca ion level-increasing activity [specific activity to Metastin (1-54)]” value 0.5. Against it:
- CNC(=N)NCCC[C@H](NC(=O)[C@H](CC(C)C)NC(=O)NNC(=O)[C@H](Cc1ccccc1)NC(=O)[C@H](CO)N(C)C(=O)[C@H](CC(N)=O)NC(=O)[C@@H]1C[C@@H](O)CN1C(=O)[C@@H](Cc1ccc(O)cc1)NC(C)=O)C(=O)N[C@@H](Cc1c[nH]c2ccccc12)C(N)=O [Compound No. 809, Ac-D-Tyr-Hyp-Asn-NMeSer-Phe-AzaGly-Leu-Arg(Me)-Trp-NH2] (Ac-[dY][Hyp]N[NMeS]F[azaGly]L[Arg(Me)]W-NH2) — higher, 1.0
- CNC(=N)NCCC[C@H](NC(=O)[C@H](CC(C)C)NC(=O)NNC(=O)[C@H](Cc1ccccc1)NC(=O)[C@@H]1C[C@@H](O)CN1C(=O)[C@H](CC(N)=O)NC(=O)[C@@H]1C[C@@H](O)CN1C(=O)[C@@H](Cc1ccc(O)cc1)NC(C)=O)C(=O)N[C@@H](Cc1c[nH]c2ccccc12)C(N)=O [Compound No. 810, Ac-D-Tyr-Hyp-Asn-Hyp-Phe-AzaGly-Leu-Arg(Me)-Trp-NH2] (Ac-[dY][Hyp]N[Hyp]F[azaGly]L[Arg(Me)]W-NH2) — higher, 1.5
- CNC(=N)NCCC[C@H](NC(=O)[C@H](CC(C)C)NC(=O)NNC(=O)[C@H](Cc1ccccc1)NC(=O)CNC(=O)[C@H](CC(N)=O)NC(=O)[C@@H]1C[C@@H](O)CN1C(=O)[C@@H](Cc1ccc(O)cc1)NC(C)=O)C(=O)N[C@@H](Cc1c[nH]c2ccccc12)C(N)=O [Compound No. 813, Ac-D-Tyr-Hyp-Asn-Gly-Phe-AzaGly-Leu-Arg(Me)-Trp-NH2] (Ac-[dY][Hyp]NGF[azaGly]L[Arg(Me)]W-NH2) — the same, 0.5
- CNC(=N)NCCC[C@H](NC(=O)[C@H](CC(C)C)NC(=O)NNC(=O)[C@H](Cc1ccccc1)NC(=O)[C@@H](C)NC(=O)[C@H](CC(N)=O)NC(=O)[C@@H]1C[C@@H](O)CN1C(=O)[C@@H](Cc1ccc(O)cc1)NC(C)=O)C(=O)N[C@@H](Cc1c[nH]c2ccccc12)C(N)=O [Compound No. 815, Ac-D-Tyr-Hyp-Asn-D-Ala-Phe-AzaGly-Leu-Arg(Me)-Trp-NH2] (Ac-[dY][Hyp]N[dA]F[azaGly]L[Arg(Me)]W-NH2) — the same, 0.5
- CNC(=N)NCCC[C@H](NC(=O)[C@H](CC(C)C)NC(=O)NNC(=O)[C@H](Cc1ccccc1)NC(=O)[C@@H](NC(=O)[C@H](Cc1cnc[nH]1)NC(=O)[C@@H]1C[C@@H](O)CN1C(=O)[C@@H](Cc1ccc(O)cc1)NC(C)=O)[C@@H](C)O)C(=O)N[C@@H](Cc1c[nH]c2ccccc12)C(N)=O [Compound No. 816, Ac-D-Tyr-Hyp-His-Thr-Phe-AzaGly-Leu-Arg(Me)-Trp-NH2] (Ac-[dY][Hyp]HTF[azaGly]L[Arg(Me)]W-NH2) — higher, 1.1
- CNC(=N)NCCC[C@H](NC(=O)[C@H](CC(C)C)NC(=O)NNC(=O)[C@H](Cc1ccccc1)NC(=O)[C@@H](NC(=O)[C@H](CCC(N)=O)NC(=O)[C@@H]1C[C@@H](O)CN1C(=O)[C@@H](Cc1ccc(O)cc1)NC(C)=O)[C@@H](C)O)C(=O)N[C@@H](Cc1c[nH]c2ccccc12)C(N)=O [Compound No. 843, Ac-D-Tyr-Hyp-Gln-Thr-Phe-AzaGly-Leu-Arg(Me)-Trp-NH2] (Ac-[dY][Hyp]QTF[azaGly]L[Arg(Me)]W-NH2) — higher, 0.8
- CNC(=N)NCCC[C@H](NC(=O)[C@H](CC(C)C)NC(=O)NNC(=O)[C@H](Cc1ccccc1)NC(=O)[C@@H](NC(=O)[C@@H](CC(N)=O)NC(=O)[C@@H]1C[C@@H](O)CN1C(=O)[C@@H](Cc1ccc(O)cc1)NC(C)=O)[C@@H](C)O)C(=O)N[C@@H](Cc1c[nH]c2ccccc12)C(N)=O [Compound No. 844, Ac-D-Tyr-Hyp-D-Asn-Thr-Phe-AzaGly-Leu-Arg(Me)-Trp-NH2] (Ac-[dY][Hyp][dN]TF[azaGly]L[Arg(Me)]W-NH2) — higher, 0.9
- CNC(=N)NCCC[C@H](NC(=O)[C@H](CC(C)C)NC(=O)NNC(=O)[C@H](Cc1ccccc1)NC(=O)[C@@H](NC(=O)[C@H](CCCNC(N)=O)NC(=O)[C@@H]1C[C@@H](O)CN1C(=O)[C@@H](Cc1ccc(O)cc1)NC(C)=O)[C@@H](C)O)C(=O)N[C@@H](Cc1c[nH]c2ccccc12)C(N)=O [Compound No. 845, Ac-D-Tyr-Hyp-Cit-Thr-Phe-AzaGly-Leu-Arg(Me)-Trp-NH2] (Ac-[dY][Hyp][Cit]TF[azaGly]L[Arg(Me)]W-NH2) — higher, 1.0
- CNC(=N)NCCC[C@H](NC(=O)[C@H](CC(C)C)NC(=O)NNC(=O)[C@H](Cc1ccccc1)NC(=O)[C@H](NC(=O)[C@H](CC(N)=O)NC(=O)[C@@H]1C[C@@H](O)CN1C(=O)[C@@H](Cc1ccc(O)cc1)NC(C)=O)[C@H](C)O)C(=O)N[C@@H](Cc1c[nH]c2ccccc12)C(N)=O [Compound No. 846, Ac-D-Tyr-Hyp-Asn-D-Thr-Phe-AzaGly-Leu-Arg(Me)-Trp-NH2] (Ac-[dY][Hyp]N[dT]F[azaGly]L[Arg(Me)]W-NH2) — higher, 0.9
- CNC(=N)NCCC[C@H](NC(=O)[C@H](CC1CC1)NC(=O)NNC(=O)[C@H](Cc1ccccc1)NC(=O)[C@@H](NC(=O)[C@H](CC(N)=O)NC(=O)[C@@H]1C[C@@H](O)CN1C(=O)[C@@H](Cc1ccc(O)cc1)NC(C)=O)[C@@H](C)O)C(=O)N[C@@H](Cc1c[nH]c2ccccc12)C(N)=O [Compound No. 856, Ac-D-Tyr-Hyp-Asn-Thr-Phe-AzaGly-Ala(cPr)-Arg(Me)-Trp-NH2] (Ac-[dY][Hyp]NTF[azaGly][Ala(cPr)][Arg(Me)]W-NH2) — higher, 0.6
- CNC(=N)NCCC[C@H](NC(=O)[C@H](CC(C)C)NC(=O)NNC(=O)[C@H](Cc1ccccc1)NC(=O)c1ccc(NC(N)=O)cc1)C(=O)N[C@@H](Cc1c[nH]c2ccccc12)C(N)=O [Compound No. 860, 4-Ureidobenzoyl-Phe-AzaGly-Leu-Arg(Me)-Trp-NH2] — higher, 1.3
- CNC(=N)NCCC[C@H](NC(=O)[C@H](CC(C)C)NC(=O)NNC(=O)[C@H](Cc1ccccc1)NC(=O)[C@@H](NC(=O)[C@H](CCCNC(=N)N)NC(=O)[C@@H]1C[C@@H](O)CN1C(=O)[C@@H](Cc1ccc(O)cc1)NC(C)=O)[C@@H](C)O)C(=O)N[C@@H](Cc1c[nH]c2ccccc12)C(N)=O [Compound No. 861, Ac-D-Tyr-Hyp-Arg-Thr-Phe-AzaGly-Leu-Arg(Me)-Trp-NH2] (Ac-[dY][Hyp]RTF[azaGly]L[Arg(Me)]W-NH2) — higher, 1.4
